Measurements reported in patent US20240408099A1, “COMBINATION […] OF KRAS G12D INHIBITORS WITH Pan ErbB FAMILY INHIBITORS” (MIRATI THERAPEUTICS, INC., priority 2021, published 2024).

System: HPAC cells
Assay: HPAC TGI 73 pancreatic cancer xenograft, tumor volumes
Format: in vivo, nude/nude mice
Conditions: for Average Tumor Volumes: 50 mg/kg PO daily
Experimental: Immunocompromised nude/nude mice are inoculated in the right hind flank with cells harboring a KRas G12D mutation. When tumor volumes reach between 200-400 mm^3 in size, the mice are divided into four to five groups of 5 mice each. The first group is administered vehicle only. […] The fourth or last groups are administered the single agent dose of the KRas G12D inhibitor using the twice daily schedule and/or the 2 sequential days followed by 5 days off schedule in combination with the single agent dose of one of the EGFR inhibitors. The treatment period varies from cell line to cell line but typically is between 15-40 days. Tumor volumes are measured using a caliper every two-three days and tumor volumes are calculated by the formula: […].
Experimental Procedures. 20 nude/nude mice were inoculated with HPAC cells in the right hind flank. When the tumors reached ˜200 mm^3 four treatment groups were established with five mice per group.

SMILES: C#Cc1cccc(Nc2ncnc3cc(OCCOC)c(OCCOC)cc23)c1 [Erlotinib, [6,7-Bis-(2-methoxy-ethoxy)-quinazolin-4-yl]-(3-ethynyl-phenyl)-amine, reference compound]
- Average Tumor Volumes (Study Day 0): 197.582 mm^3
- Average Tumor Volumes (Study Day 3): 320.132 mm^3
- Average Tumor Volumes (Study Day 7): 421.908 mm^3
- Average Tumor Volumes (Study Day 10): 587.79 mm^3
- Average Tumor Volumes (Study Day 14): 705.688 mm^3
- Average Tumor Volumes (Study Day 17): 856.214 mm^3
- Average Tumor Volumes (Study Day 21): 945.702 mm^3
- tumor growth inhibition (50 mg/kg daily, single agent, Day 21): 35%
